As a reminder, the IC50 is the concentration that gives 50% inhibition.

Here are results for 17 compounds from patent US20240252694A1, “CONJUGATES COMPRISING COVALENT BINDERS FOR TARGETING INTRACELLULAR KRAS G12C PROTEINS” (RayzeBio, Inc., priority 2021, published 2024).

Where two headings read alike, the source gives them in different places.

Assay [1] deals with human ERK1 dually phosphorylated at T202/Y204 and ERK2. Briefly: Phosphorylated ERK1/ERK2 ELISA. It counts as cell-based. As to conditions: phosphorylated ERK in cell lysates after treatment with compounds, sandwich ELISA, cell line not stated. As for the experimental part: An ERK phosphorylation ELISA kit was used to characterize compounds for KRAS-based cell activity. The sandwich ELISA (RnD Systems. Catalog #DYC1018B) measures human ERK1 that is dually phosphorylated at T202/Y204 and ERK2. Cell lysates from cells before and after treatment with compounds were prepared using kit manufacturer protocols.
All reagents were prepared following the kit's protocol. The wells of a 96-well microtiter plate were coated with 100 μL of 8.0 μg/mL of capture antibody in PBS. The plate was sealed and left to incubate overnight at ambient temperature. After incubation, the wells were washed with 400 μL of Wash Buffer for a total of 3 washes. Wells were then blocked by adding 300 μL of Block Buffer to each well and incubated at ambient temperature for 1-2 hours. After removal of the Block Buffer by aspirating and washing, 100 μL of standards and samples were added to the plate in duplicates and incubated for 2 hours at ambient temperature. The aspiration and wash steps were repeated to remove unbound standard and samples and 100 μL of 400 ng/mL detection antibody was applied to each well. After 2 hours at ambient temperature, detection antibody was removed by washing and 100 μL of Streptavidin-HRP was added to each well. Incubation of Streptavidin-HRP was at ambient temperature for 20 minutes, after which Streptavidin-HRP was removed by washing, 100 μL of Substrate Solution was added to each well and incubated for 20 minutes before 50 μL of Stop Solution was added to each well.
The optical density of each well was immediately analyzed at 450 nm with a wavelength correction at 540 nm. The standards were plotted by averaging the optical density for each replicate and fitted with a four-parameter logistic curve fit. Concentrations of phosphorylated ERK in cell lysate samples were determined by extrapolation from the standard curve and then adjusted for any dilution factors.
A general note: An ELISA detects its analyte on a solid surface through an enzyme-linked reagent.

The target in the next assay is T1, KRAS (G12C) (Homo sapiens, UniProt P01116, G12C).
T1 construct: purchased BPS Bioscience 79859
T1 sequence (P01116 1-188 isoform P01116-2 G12C): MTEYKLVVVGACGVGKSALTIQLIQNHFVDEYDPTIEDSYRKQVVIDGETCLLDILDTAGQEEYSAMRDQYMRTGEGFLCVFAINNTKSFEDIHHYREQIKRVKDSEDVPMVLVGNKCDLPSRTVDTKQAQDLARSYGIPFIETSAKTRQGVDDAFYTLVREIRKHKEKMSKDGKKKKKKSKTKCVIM
Briefly: KRAS G12C Nucleotide Exchange Assay (fixed GTP concentration). It counts as biochemical. As for the experimental part:
A KRAS (G12C) Nucleotide Exchange Assay kit was used to evaluate compound antagonistic binding. The assay kit (BPS Bioscience. Catalog #79859) utilizes KRAS (G12C) labeled with BODIPY-GDP to determine if compounds can affect the nucleotide exchange (GDP to GTP) in KRAS signaling, Compounds were typically characterized using both protocols: fixed GTP concentrations and fixed inhibitor concentrations.
All reagents were prepared following manufacturer's protocol. 5 μL BODIPY-GDP and 10 μL of KRAS buffer were added to each well. A 3-fold serial dilution of compound in 5% DMSO was prepared. Typically, compounds were tested in the range of 0 μM to 50 μM, but the range could be modified depending on the characterization needs. 5 μL of diluted compound was added to the wells and the plate was centrifuged briefly to ensure all components were mixed before incubation at ambient temperature. After incubation for 2 hours, 10 μM GTP and 25 mM EDTA were mixed at a 1:1 ratio and 5 μL was added to the wells. The plate was then incubated for 1 hour at ambient temperature. After incubation, fluorescence was measured at […].
Data was analyzed by plotting fluorescence vs GTP concentration for control wells and compound wells.

[2] abbreviates: KRAS (G12C) labeled with BODIPY-GDP, fixed GTP concentration, 2 hours compound incubation, fluorescence readout, read-out: IC50.

As for `C=CC(=O)N1CCN(c2nc(OC[C@@H]3CCCN3CCCNC(=O)c3cccc(I)c3)nc3c2CCN(c2cccc4cccc(Cl)c24)C3)C[C@@H]1CC#N` [Ex-5, N-[3-[(2S)-2-[[7-(8-chloro-1-naphthyl)-4-[(3S)-3-(cyanomethyl)-4-prop-2-enoyl-piperazin-1-yl]-6,8-dihydro-5H-pyrido[3,4-d]pyrimidin-2-yl]oxymethyl]pyrrolidin-1-yl]propyl]-3-iodo-benzamide], the IC50 (in assay [1] (Homo sapiens); on KRAS (G12C) (setting [2])) was 1 to 10 µM throughout.
`C=CC(=O)N1CCN(c2nc(OC[C@@H]3CCCN3CC(CO)CO)nc3c2CCN(c2cccc4cccc(I)c24)C3)C[C@@H]1CC#N` [Ex-14, 2-[(2S)-4-[2-[I(2S)-1-[3-hydroxy-2-(hydroxymethyl)propylpyrrolidin-2-yl]methoxy]-7-(8-iodo-1-naphthyl)-6,8-dihydro-5H-pyrido(3,4-d]pyrimidin-4-yl]-1-prop-2-enoyl-piperazin-2-yl]acetonitrile]: the IC50 in assay [1] (Homo sapiens) is below 0.1 µM.
With `C=CC(=O)N1CCN(c2nc(OC[C@@H]3CCCN3CCCOC(=O)c3cccc(I)c3)nc3c2CCN(c2cccc4cccc(Cl)c24)C3)C[C@@H]1CC#N` [Ex-4], the IC50 in assay [1] (Homo sapiens) is below 0.1 µM.
On the same count and under the same terms, the result for `C=CC(=O)N1CCN(c2nc(OC[C@@H]3CCCN3CCCC(=O)O)nc3c2CCN(c2cccc4cccc(I)c24)C3)C[C@@H]1CC#N` [Ex-11, 4-[(2S)-2-[[4-[(3S)-3-(cyanomethyl)-4-prop-2-enoyl-piperazin-1-yl]-7-(8-iodo-1-naphthyl)-6,8-dihydro-5H-pyrido(3,4-d]pyrimidin-2-yl]oxymethyl]pyrrolidin-1-yl]butanoic acid] reads below 0.1 µM; that for `C=CC(=O)N1CCN(c2nc(OC[C@@H]3CCCN3CCOCc3cccc(I)c3)nc3c2CCN(c2cccc4cccc(Cl)c24)C3)C[C@@H]1CC#N` [Ex-1, 2-[(2S)-4-[7-(8-chloro-1-naphthyl)-2-[[(2S)-1-[2-[(3-iodophenyl)methoxy]ethyl]pyrrolidin-2-yl]methoxy]-6,8-dihydro-5H-pyrido[3,4-d]pyrimidin-4-yl]-1-prop-2-enoyl-piperazin-2-yl]acetonitrile], 0.1 to 1 µM.
Take `C=CC(=O)N1CCN(c2nc(OC[C@@H]3CCCN3CCCCCCNC(=O)CN3CCN(CC(=O)O)CCN(CC(=O)O)CCN(CC(=O)O)CC3)nc3c2CCN(c2cccc4cccc(Cl)c24)C3)C[C@@H]1CC#N` [CHL-001, 2-[4,7-bis(carboxymethyl)-10-[2-[6-[(2S)-2-[[7-(8-chloro-1-naphthyl)-4-[(3S)-3-(cyanomethyl)-4-prop-2-enoyl-piperazin-1-yl]-6,8-dihydro-5H-pyrido[3,4-d]pyrimidin-2-yl]oxymethyl]pyrrolidin-1-yl]hexylamino]-2-oxo-ethyl]-1,4,7,10-tetrazacyclododec-1-yl]acetic acid]: the concentration for half-maximal inhibition (IC50) in assay [1] is at least 10 µM.
`C=CC(=O)N1CCN(c2nc(OC[C@@H]3CCCN3CCCCOCc3cccc(I)c3)nc3c2CCN(c2cccc4cccc(Cl)c24)C3)C[C@@H]1CC#N` [Ex-3]: the IC50 fell in the range of 0.1 to 1 µM in assay [1] (Homo sapiens) and 1 to 10 µM on KRAS (G12C) (setting [2]).
Regarding `C=CC(=O)N1CCN(c2nc(OC[C@@H]3CCCN3CCCOCc3cccc(I)c3)nc3c2CCN(c2cccc4cccc(Cl)c24)C3)C[C@@H]1CC#N` [Ex-2, 2-[(2S)-4-[7-(8-chloro-1-naphthyl)-2-[[(2S)-1-[3-[(3-iodophenyl)methoxy]propyl]pyrrolidin-2-yl]methoxy]-6,8-dihydro-5H-pyrido[3,4-d]pyrimidin-4-yl]-1-prop-2-enoyl-piperazin-2-yl]acetonitrile], the half-maximal inhibitory concentration (IC50) was in the range of 0.1 to 1 µM in assay [1] (Homo sapiens) and 1 to 10 µM on KRAS (G12C) (setting [2]).
In the case of `C=CC(=O)N1CCN(c2nc(OC[C@@H]3CCCN3CCC(C)(C)C(=O)O)nc3c2CCN(c2cccc4cccc(I)c24)C3)C[C@@H]1CC#N` [Ex-12, 4-[(2S)-2-[[4-[(3S)-3-(cyanomethyl)-4-pop-2-enoyl-piperazin-1-yl]-7-(8-iodo-1-naphthyl)-6,8-dihydro-5H-pyrido[3,4-d]pyrimidin-2-yl]oxymethyl]pyrrolidin-1-yl]-2,2-dimethyl-butanoic acid], in assay [1] (Homo sapiens), the half-inhibitory concentration (IC50) was below 0.1 µM.
Turning to `C=CC(=O)N1CCN(c2nc(OC[C@@H]3CCCN3CCCCNC(=O)CN3CCN4CCN5CCN(CC3)CC(=O)[O][Lu]([O]C(=O)C4)[O]C(=O)C5)nc3c2CCN(c2cccc4cccc(Cl)c24)C3)C[C@@H]1CC#N` [Lu-CHL-003, N-[4-[(2S)-2-[[7-(8-chloro-1-naphthyl)-4-[(3S)-3-(cyanomethyl)-4-prop-2-enoyl-piperazin-1-yl]-6,8-dihydro-5Hpyrido[3,4-d]pyrimidin-2-yl]oxymethyl]pyrrolidin-1-yl]butyl]-2-(3,16,19-trioxo-2,17,18-trioxa-5,8,11,14-tetrazaλ3-lutetatricyclo[9.6.3,25,14]docosan-8-yl)acetamide], the results for the IC50 (in assay [1]; against KRAS (G12C)) were 1 to 10 µM and below 1 µM, respectively.
Consider `C=CC(=O)N1CCN(c2nc(OC[C@@H]3CCCN3CCC(=O)O)nc3c2CCN(c2cccc4cccc(I)c24)C3)C[C@@H]1CC#N` [Ex-10], for which the concentration for half-maximal inhibition (IC50) in assay [1] (Homo sapiens) is below 0.1 µM.
Still for that read-out and setting: the result for `C=CC(=O)N1CCN(c2nc(OC[C@@H]3CCCN3CC(O)CO)nc3c2CCN(c2cccc4cccc(I)c24)C3)C[C@@H]1CC#N` (some centres unmarked) [Ex-13] reads below 0.1 µM.
In the case of `C=CC(=O)N1CCN(c2nc(OC[C@@H]3CCCN3C)nc3c2CCN(c2cccc4cccc(I)c24)C3)C[C@@H]1CC#N` [Ex-9, 2-[(2S)-4-[7-(8-iodo-1-naphthyl)-2-[[(2S)-1-methylpyrrolidin-2-yl]methoxy]-6,8-dihydro-5H-pyrido[3,4-d]pyrimidin-4-yl]-1-prop-2-enoyl-piperazin-2-yl]acetonitrile], the IC50 was below 0.1 µM in assay [1] (Homo sapiens) and 1 to 10 µM at KRAS (G12C) (setting [2]).
As to `C=CC(=O)N1CCN(c2nc(OC[C@@H]3CCCN3CCNC(=O)CN3CCN4CCN5CCN(CC3)CC(=O)[O][Lu]([O]C(=O)C4)[O]C(=O)C5)nc3c2CCN(c2cccc4cccc(Cl)c24)C3)C[C@@H]1CC#N` [Lu-CHL-002, N-[2-[(2S)-2-[[7-(8-chloro-1-naphthyl)-4-[(3S)-3-(cyanomethyl)-4-prop-2-enoyl-piperazin-1-yl]-6,8-dihydro-5H-pyrido[3,4-d]pyrimidin-2-yl]oxymethyl]pyrrolidin-1-yl]ethyl]-2-(3,16,19-trioxo-2,17,18-trioxa-5.8,11,14-tetraza-1λ3-lutetatricyclo[9.6.3,25,14]docosan-8-yl)acetamide], the IC50 (in assay [1]; at KRAS (G12C) (setting [2])) was 1 to 10 µM in each case.
For the compound `C=CC(=O)N1CCN(c2nc(OC[C@@H]3CCCN3CCCC(=O)OCc3cccc(I)c3)nc3c2CCN(c2cccc4cccc(Cl)c24)C3)C[C@@H]1CC#N` [Ex-6, (3-iodophenyl)methyl 4-[(2S)-2-[[7-(8-chloro-1-naphthyl)-4-[(3S)-3-(cyanomethyl)-4-prop-2-enoyl-piperazin-1-yl]-6,8-dihydro-5H-pyrido[3,4-d]pyrimidin-2-yl]oxymethyl]pyrrolidin-1-yl]butanoate], in assay [1] (Homo sapiens), the IC50 was below 0.1 µM.
As to “N-[4-[(2S)-2-[[7-(8-chloro-1-naphthyl)-4-[(3S)-3-(cyanomethyl)-4-prop-2-enoyl-piperazin-1-yl]-6,8-dihydro-5H-pyrido[3,4-d]pyrimidin-2yl]oxymethyl]pyrrolidin-1-yl]butyL]1J-2-[(6S,9S, 12S, 21 S)-6,9,12,21-tetraethyl-3,16,19-trioxo-2,17,18-trioxa-5,8,11,14-tetraza-17,3-lutetatricyclo[9.6.3,25,14]docosan-8-yl]acetamide [Lu-CHL-005]”, in assay [1], the half-inhibitory concentration (IC50) was 0.1 to 1 µM.
For the compound `C=CC(=O)N1CCN(c2nc(OC[C@@H]3CCCN3CCC(C)(C)OC(=O)c3cccc(I)c3)nc3c2CCN(c2cccc4cccc(Cl)c24)C3)C[C@@H]1CC#N` [Ex-8, [3-[(2S)-2-[[7-(8-chloro-1-naphthyl)-4-[(3S)-3-(cyanomethyl)-4-prop-2-enoyl-piperazin-1-yl]-6,8-dihydro-5Hpyrido[3,4-d]pyrimidin-2-yl]oxymethyl]pyrrolidin-1-yl]-1,1-dimethyl-propyl]3-iodobenzoate], the IC50 in assay [1] (Homo sapiens) is 0.1 to 1 µM.
